Source: US9808527B2, “Methods and compositions for treating HIV infections” (priority 2006, dated 2017)
“Also recorded” adds a separate entry of the source. Like-named read-outs stand apart in the source and are kept apart here.

Legend:
[1] = system: HIV-1LAI; test: MTT assay, MT-2 cells exposed to HIV-1LAI (acute HIV-1 infection assay); assay type: cell-based; conditions: for Selectivity Index: HIV-1LAI; for IC50: Human immunodeficiency virus 1, MT2, 168 h
Experimental: (§1) Drug susceptibility assay. The susceptibility of HIV-1LAI, HIV-2EHO, HIV-2ROD, to various drugs and the cytotoxicity of those drugs was determined by using the MTT assay. Briefly, MT-2 cells (2×10^4/mL) were exposed to 100 TCID50s (50% tissue culture infectious doses) of HIV-1LAI, HIV-2EHO, or HIV-2ROD in the presence or absence of various concentrations of drugs in 96-well microculture plates and were incubated at 37° C. for 7 days. After 100 μL of the medium was removed from each well, 3-(4,5-dimethylthiazol-2-yl)-2,5-diphenyltetrazolium bromide (MTT) solution (10 μL, 7.5 mg/mL in phosphate-buffered saline) was added to each well in the plate, followed by incubation at 37° C. for 4 hours. […] All assays were performed in duplicate or triplicate. To determine the sensitivity of HIV-1Ba-L, HIV-1ERS104 pre, and clinical multi-drug-resistant HIV-1 isolates and different subtypes of HIV-1 isolates to drugs, phytohemagglutinin-activated peripheral blood mononuclear cells (PHA-PBMs; 10^6/mL) were exposed to 50 TCID50 (50% tissue infectious dose) of each HIV-1 isolate and cultured in the presence or absence of various concentrations of drugs in 10-fold serial dilutions in 96-well microtiter culture plates. To determine the drug susceptibility of certain laboratory HIV-1 strains (HIV-1NL4-3), MT-4 cells were used as target cells. MT-4 cells (10^5/mL) were exposed to 100 TCID50 of wild type HIV-1NL4-3 and PI-resistant HIV-1NL4-3 in the presence or absence of various concentrations of drugs and were incubated at 37° C. On day 7 of culture, the supernatant was harvested and the amount of p24 Gag protein was determined by using a fully automated chemiluminescent enzyme immunoassay system (Lumipulse F; Fujirebio Inc., Tokyo, Japan) (22). […] All assays were performed in duplicate or triplicate.

[2] = system: MT-2 cells; test: Cytotoxicity by MTT assay; assay type: cell-based, Human
Experimental: as §1

[3] = system: HIV-2EHO; test: MTT assay, MT-2 cells exposed to HIV-2EHO; assay type: cell-based
Experimental: as §1
(§2) All assays were conducted in duplicate, and the data shown represent mean values (±1 standard deviations) derived from the results of three independent experiments.

[4] = system: HIV-2ROD; test: MTT assay, MT-2 cells exposed to HIV-2ROD; assay type: cell-based
Experimental: as §1, §2

[5] = system: HIV-1NL4-3; test: p24 Gag production inhibition, MT-4 cells, wild-type HIV-1NL4-3; assay type: cell-based
Experimental: as §1

[6] = system: Ba-L (B-R5); test: p24 Gag production inhibition, PHA-PBMs, subtype B Ba-L; assay type: cell-based, HIV-1; conditions: Human immunodeficiency virus 1, BAL, read-out: IC50 against Ba-L (B-R5)
Experimental: as §1
(§3) The IC50 values were determined by using PHA-PBMs as target cells and the inhibition of p24 Gag protein production by each drug was used as an endpoint. All assays were conducted in duplicate, and the data shown represent mean values (±1 standard deviations) derived from the results of two or three independent experiments.

[7] = system: 97ZA003 (C-R5); test: p24 Gag production inhibition, PHA-PBMs, subtype C isolate 97ZA003; assay type: cell-based, HIV-1
Experimental: as §1, §3

[8] = target: T1, CFP- and YFP-tagged HIV-1 protease subunits (Human immunodeficiency virus type 1 group M subtype B, UniProt P12497); assay type: cell-based; conditions: Cos-7 cells; for CFP A/B ratio (CFP fluorescence after/before photobleaching): ratio <1 = dimerization blocked
T1 construct: expressed in transfected cells; host or cells: Cos-7
Experimental: After 72 hr, cultured cells were examined in the FRET-HIV-1 assay system using confocal microscopy Fluoview FV500 confocal laser scanning microscope, and CFP^A/B were determined and plotted. […] The FRET efficiency was determined following acceptor photobleaching as previously described (Bastiaens et al., EMBO 1996; Siegel et al., Science's stke 2000; Firulli et al., Nature genetics, 2005; Szczesna et al., JBC 2003). Dequenching of the donor CFP by selective photobleaching of the acceptor YFP was performed by first obtaining YFP and CFP images at the same focal plane, followed by illuminating for 3 min the same image at wavelength of 488 nm with a laser power set at the maximum intensity to bleach YFP and re-capturing the same CFP and YFP images. The changes in the CFP and YFP fluorescence intensity in the images of selected regions were examined and quantified using Olympus FV500 Image software system. Background values were obtained from the regions where no cells were present and were subtracted from the values for the cells examined in all calculations. For each chimeric protein, the data were obtained from at least three independent experiments. FRET efficiency was determined using the formula: ET=(1−(IDA/ID))×100, where IDA and ID represent the steady-state donor fluorescence in the presence and absence of the acceptor, respectively. Digitized image data obtained from the experiment were prepared for presentation using Photoshop 6.0 (Adobe systems, Mountain View, Calif.). Ratios of intensities of ECFP fluorescence after photobleaching to ECFP fluorescence prior to photobleaching were determined. The ratios of more than 1 indicate that dimerization of CFP- and YFP-tagged protease subunits occurred and those of less than 1 indicate that dimerization was blocked by the test agent.
Generation of FRET-based HIV-1 expression assay. The basic concepts of the intermolecular fluorescence resonance energy transfer (FRET)-based HIV-1-expression assay (FRET-HIV-1 assay) are shown in FIG. 7. Within a plasmid (pHIV-1NL4-3), which encodes a full-length molecular infectious HIV-1 clone, the gene encoding a cyan fluorescent donor protein (CFP) was attached to the downstream end (C-terminus) of the gene encoding an HIV-1 protease subunit through the flexible linker added (five alanines), generating pHIV-1NL4-3/CFP (FIG. 7A). Within the other plasmid (pHIV-1NL4-3), the gene encoding a yellow fluorescent acceptor protein (YFP) was attached to the downstream end of protease-encoding gene in the same manner, generating pHIV-1NL4-3/YFP. Both CFP and YFP were designed to have phenylalanine and proline in the connection with reverse transcriptase so that the protease is cleaved from reverse transcriptase when two subunits dimerize and the dimerized protease acquires enzymatic activity. […] A focused laser beam excitation of CFP (triggered by Helium-Cadmium laser) results in rapid energy transfer to YFP, and most of the fluorescence photons are emitted by YFP (Miyawaki et al. Nature 388(6645):882-887 (1997)). If the dimerization is blocked, the average distance between CFP and YFP becomes larger and the energy transfer rate is decreased and the fraction of photons emitted by YFP is lowered.
In order to interpret the energy transfer efficiency quantitatively, an acceptor photobleaching technique was used, in which the change in CFP emission quenching is measured by comparing the value before and after selectively photobleaching YFP, which prevents problems associated with variable expression levels.

[9] = read-out: IC50 against HIV-1LAI, MT-2 cells, 100 TCID50 of HIV-1LAI, MTT assay on day 7
[10] = Human immunodeficiency virus 2, MT2, read-out: IC50 against HIV-2EHO
[11] = Human immunodeficiency virus 2, MT2, read-out: IC50 against HIV-2ROD
[12] = Human immunodeficiency virus 1, MT4, read-out: IC50 against HIV-1NL4-3 (wild type)
[13] = Human immunodeficiency virus 1, PHA-PBMs, p24 Gag production, read-out: IC50 against 97ZA003 (C-R5)
[14] = cytotoxicity, MTT assay, MT-2 cells, read-out: CC50
[15] = MT-2 cells, 100 TCID50 of HIV-1LAI, MTT assay on day 7, read-out: IC50 against HIV-1LAI
[16] = Human immunodeficiency virus 2, MT2, MT-2 cells, 100 TCID50, MTT assay, read-out: IC50 against HIV-2EHO
[17] = Human immunodeficiency virus 2, MT2, MT-2 cells, 100 TCID50, MTT assay, read-out: IC50 against HIV-2ROD
[18] = Human immunodeficiency virus 1, MT4, MT-4 cells, 100 TCID50, p24 Gag production, read-out: IC50 against HIV-1NL4-3 (wild type)

SMILES	Selectivity Index ([1]; MT-2 cells)	IC50 [1, 9]	CC50 ([2]; human, 7 days)	IC50 [3, 10]	IC50 [4, 11]	IC50 [5, 12]	IC50 ([6]; PHA-PBMs, p24 Gag production)	IC50 [7, 13]	inhibition of protease dimerization ([8]; 1 μM)	CFP A/B ratio (CFP fluorescence after/before photobleaching) ([8]; 1 μM)	inhibition of protease dimerization ([8]; 10 μM)	CC50 [2, 14]	IC50 [6]	IC50 ([7]; Human immunodeficiency virus 1, read-out: IC50 against 97ZA003 (C-R5))	IC50 [1, 15]	IC50 [3, 16]	IC50 [4, 17]	IC50 ([1]; read-out: MTT assay (IC50, nM), Human CD4+ MT-2 cells, 100 TCID50 of HIV-1LAI, day 7)	IC50 [5, 18]
COC(=O)N[C@H](C(=O)N[C@@H](Cc1ccccc1)[C@@H](O)CN(Cc1ccc(-c2ccccn2)cc1)NC(=O)[C@@H](NC(=O)OC)C(C)(C)C)C(C)(C)C [ATV, Atazanavir]	5750	4.8 ± 0.1 nM	27.6 µM	0.005 ± 0.002 µM	0.013 ± 0.006 µM	0.0042 ± 0.0004 µM	0.0013 ± 0.0004 µM	0.0034 ± 0.0001 µM	None	1.25±0.12	none of these 4 PIs inhibited protease dimerization								
CC(C)(C)NC(=O)[C@@H]1C[C@@H]2CCCC[C@@H]2CN1C[C@@H](O)[C@H](Cc1ccccc1)NC(=O)[C@H](CC(N)=O)NC(=O)c1ccc2ccccc2n1 [SQV, Saquinavir]	2050	8 ± 1 nM		0.003 ± 0.0004 µM	0.0043 ± 0.0002 µM	0.007 ± 0.002 µM			None	1.11±0.15	none of these 4 PIs inhibited protease dimerization	16.4 µM	0.0083 ± 0.0005 µM	0.0067 ± 0.0008 µM					
CC(C)CN(C[C@@H](O)[C@H](Cc1ccccc1)NC(=O)O[C@H]1CCOC1)S(=O)(=O)c1ccc(N)cc1 [APV, Amprenavir]							0.025 ± 0.006 µM	0.033 ± 0.005 µM				> 100 µM			36 ± 2 nM	0.25 ± 0.08 µM	0.57 ± 0.01 µM		
CC(C)CN(CC(O)C(Cc1ccccc1)NC(=O)OC1COC2OCCC12)S(=O)(=O)c1ccc2c(c1)OCO2 (stereo not shown) [GRL-98065]	71,400	~0.5 nM		0.0032 ± 0.0007 µM	0.0045 ± 0.0004 µM	0.0003 ± 0.0002 µM	0.0002 ± 0.0001 µM	0.0005 ± 0.0001 µM	dimerization was effectively blocked; also recorded: disrupt protease dimerization									0.4 nM	
CC(C)(C)NC(=O)[C@@H]1CN(Cc2cccnc2)CCN1C[C@@H](O)C[C@@H](Cc1ccccc1)C(=O)N[C@H]1c2ccccc2C[C@H]1O [IDV, indinavir]							0.022 ± 0.005 µM	0.037 ± 0.006 µM				69.8 µM			48 ± 7 nM	0.024 ± 0.005 µM	0.054 ± 0.003 µM		
CC(C)c1nc(CN(C)C(=O)N[C@H](C(=O)N[C@@H](Cc2ccccc2)C[C@H](O)[C@H](Cc2ccccc2)NC(=O)OCc2cncs2)C(C)C)cs1 [RTV, ritonavir]							0.023 ± 0.006 µM	0.039 ± 0.004 µM	None						54 ± 1 nM	0.21 ± 0.05 µM	0.26 ± 0.01 µM		0.033 ± 0.002 µM
Cc1c(O)cccc1C(=O)N[C@@H](CSc1ccccc1)[C@H](O)CN1C[C@H]2CCCC[C@H]2C[C@H]1C(=O)NC(C)(C)C [NFV, Nelfinavir]							0.018 ± 0.004 µM	0.037 ± 0.007 µM	None		none of these 4 PIs inhibited protease dimerization	8.1 µM			32 ± 4 nM	0.03 ± 0.006 µM	0.24 ± 0.009 µM		0.033 ± 0.007 µM
Cc1cccc(C)c1OCC(=O)N[C@@H](Cc1ccccc1)[C@@H](O)C[C@H](Cc1ccccc1)NC(=O)[C@H](C(C)C)N1CCCNC1=O [LPV, lopinavir]							0.0053 ± 0.0004 µM	0.0073 ± 0.0006 µM	None			> 100 µM			7 ± 1 nM	0.0026 ± 0.0008 µM	0.0049 ± 0.0008 µM		0.031 ± 0.009 µM
